Experimental findings from PubChem BioAssay (NCI) are described below.

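Assay format: 96-well plates, 48-hour exposure. The concentration for 50% growth inhibition is given as GI50. TGI marks complete inhibition of growth.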

Among the test systems are COLO 205 colon; HCC-2998 colon; HCT-116 colon; LOX IMVI melanoma; MALME-3M melanoma; MDA-MB-231 breast; NCI-H23 lung; OVCAR-4 ovarian; OVCAR-5 ovarian; PC-3 prostate.
Experiment in all cases: growth of human tumour cells (NCI), 48 h

Take `CCCCCCCCCCCCOC1C(C(CC(=O)N2CCN(c3cccc(C(F)(F)F)c3)CC2)NS(=O)(=O)c2cc(Cl)cc(Cl)c2)OC2OC(C)(C)OC21` (stereo not given): the GI50 in the assay on COLO 205 colon, in the assay on HCC-2998 colon, in the assay on HCT-116 colon, in the assay with LOX IMVI melanoma, in the assay with MALME-3M melanoma and with MDA-MB-231 breast was above 100 µM each time. For the same molecule, the GI50 in the assay with NCI-H23 lung is above 100 µM; in the assay with OVCAR-4 ovarian it was above 100 µM; in the assay with OVCAR-5 ovarian, above 37.5 µM; with PC-3 prostate it was above 100 µM. The TGI with COLO 205 colon, with HCC-2998 colon, with HCT-116 colon, with LOX IMVI melanoma, in the assay on MALME-3M melanoma and with MDA-MB-231 breast was above 100 µM each time. For the same molecule, the TGI in the assay on NCI-H23 lung, in the assay on OVCAR-4 ovarian, with OVCAR-5 ovarian and in the assay with PC-3 prostate was above 100 µM each time.
For the molecule `O=C1OC(c2ccccc2)(c2cc(Br)c(O)c(Br)c2)c2ccccc21` (stereo not given), the GI50 in the assay on COLO 205 colon was 18.2 µM; in the assay with HCC-2998 colon it was 19.9 µM; with HCT-116 colon, 15.6 µM; in the assay with LOX IMVI melanoma it was 16.3 µM; in the assay with MALME-3M melanoma, 25.3 µM; in the assay with MDA-MB-231 breast, 25.9 µM. For the same molecule, the GI50 with NCI-H23 lung is 21.3 µM; with OVCAR-4 ovarian, 22.7 µM; with OVCAR-5 ovarian it was 31.8 µM; in the assay on PC-3 prostate, 35.6 µM. The TGI with COLO 205 colon was 39.4 µM; in the assay on HCC-2998 colon it was 37.8 µM; in the assay on HCT-116 colon, 29.1 µM; in the assay with LOX IMVI melanoma, 33 µM; in the assay with MALME-3M melanoma, 77.5 µM; with MDA-MB-231 breast, 86.1 µM. Also, the TGI is 59.1 µM in the assay on NCI-H23 lung, 78.9 µM in the assay with OVCAR-4 ovarian, above 100 µM with OVCAR-5 ovarian and above 100 µM in the assay on PC-3 prostate.
